Data on one compound can be found in patent publication US20140066385A1, “METHOD FOR TREATING CANCER BY COMBINED USE OF DRUGS” (Astellas Pharma Inc., priority 2011, published 2014).

The subject of test [1] is Human lung cancer-derived Calu 6 (HTB-56). In words: Example 1: anti-tumor effect of FK330 alone or combined with chemotherapeutic agents in Calu-6 tumor-bearing nude mice. It counts as in vivo. The text has this:
A free-form dihydrate of FK330 was used. Hereinafter, the amount of FK330 administered is expressed in weight of the dihydrate. A docetaxel hydrate injectable preparation (Taxotere (trademark), for intravenous infusion) was purchased from Sanofi-Aventis SA, and was used as docetaxel. A paclitaxel injectable preparation (paclitaxel injection liquid “Sawai”) was purchased from Sawai Pharmaceutical Co., Ltd., and was used as paclitaxel. Irinotecan hydrochloride (Topotesin (trade name) injection) was purchased from Daiichi Sankyo Co., Ltd., and was used as irinotecan. Gemcitabine hydrochloride for injection (Gemzar (trade name) injection) was purchased from Eli Lilly Japan K.K., and was used as gemcitabine. Doxorubicin hydrochloride for injection (Adriacin (trade name) Injection 10) was purchased from Kyowa Hakko Kogyo Co., Ltd., and was used as doxorubicin. A carboplatin injection liquid (Paraplatin (trade name) injection liquid) was purchased from Bristol Myers Squibb Co., and was used as carboplatin.
FK330 was suspended (20 mg/mL) in a 0.5% aqueous methyl cellulose solution (0.5% MC). Docetaxel was prepared in the attached dissolution liquid at 4 mg/mL, and was diluted with physiological saline (Otsuka Pharmaceutical Group) to 1 mg/mL. Paclitaxel, irinotecan, gemcitabine, doxorubicin, and carboplatin were prepared with physiological saline for injection at the time of use at concentrations of 1 mg/mL, 3 mg/mL, 16 mg/mL, 1 mg/mL, and 6 mg/mL, respectively.
Human lung cancer-derived Calu 6 (HTB-56) was obtained from American Type Culture Collection (VA, USA). The cells were cultured under the conditions of 37° C. and 5% CO2 by using RPMI1640 medium containing 10% heat-inactivated fetal bovine serum (FBS). The cells were harvested with trypsin and were suspended in PBS at 6×10^7 cells/mL, and the suspension was mixed with an equal amount of Matrigel (trade name) Basement Membrane Matrix (manufactured by Becton Dickinson Co., Bedford, Mass., USA).
Five-week old male nude mice (CAnN Cg-Foxn1nu/CrlCrlj(nu/nu)) were purchased from Charles River Laboratories Japan, Inc. (Japan, Kanagawa). The animals were raised under specific pathogen-free (SPF) conditions throughout the test period by feeding standard feedstuff and drinking water. The cultured cells were subcutaneously inoculated into the dorsal region of the nude mice at a concentration of 3×10^6 cells/0.1 mL/mouse. Nude mice which had the tumor volumes (major axis×[minor axis]^2×0.52) ranging from 111.9 mm^3 to 369.3 mm^3 were assigned by using SAS to minimize the fluctuation in tumor volume between the groups and within the group.
The first day of administration was designated as Day 1, and observation was made until Day 29. The respective groups (n=5 or 6) were treated as follows. FK330 was orally gavaged (5 mL/kg) twice a day at an interval of 6 to 8 hours, and each of the chemotherapeutic agents was administered by intravenous bolus injection (10 mL/kg) through the tail vein.
FK330 single administration group: 100 mg/kg of FK330 was administered twice a day (bid) (200 mg/kg/day, administered every day from the initiation of experiment to the completion)
Docetaxel single administration group: Docetaxel 10 mg/kg/day (Day 1, 5 and 9)
Paclitaxel single administration group: Paclitaxel 10 mg/kg/day (Day 1 through 7)
Irinotecan single administration group: lrinotecan 30 mg/kg/day (Day 1 through 7)
Gemcitabine single administration group: Gemcitabine 160 mg/kg/day (Day 1, 4 and 7)
Doxorubicin single administration group: Doxorubicin 10 mg/kg/day (Day 1 and 8)
Carboplatin single administration group: Carboplatin 60 mg/kg/day (Day 1 and 2)
FK330 100 mg/kg bid+Docetaxel 10 mg/kg/day (Day 1, 5 and 9), n=6
FK330 100 mg/kg bid+Paclitaxel 10 mg/kg/day (Day 1 through 7), n=6
FK330 100 mg/kg bid+Irinotecan 30 mg/kg/day (Day 1 through 7), n=6
FK330 100 mg/kg bid+Gemcitabine 160 mg/kg/day (Day 1, 4 and 7), n=6
FK330 100 mg/kg bid+Doxorubicin 10 mg/kg/day (Day 1 and 8), n=6 […]

For test [2], the target named is inducible nitric oxide synthase (inducible NOS, iNOS) (Homo sapiens, UniProt P35228). The note with it: reported in Non-Patent Document 1; cited from earlier work.
Test [3] relates to chronic rejection, rat aorta transplantation. The note with it: reported in Non-Patent Document 2; cited from earlier work.

Molecules are shown by their SMILES.

inducible nitric oxide synthase (inducible NOS, iNOS), sequence (P35228 whole entry): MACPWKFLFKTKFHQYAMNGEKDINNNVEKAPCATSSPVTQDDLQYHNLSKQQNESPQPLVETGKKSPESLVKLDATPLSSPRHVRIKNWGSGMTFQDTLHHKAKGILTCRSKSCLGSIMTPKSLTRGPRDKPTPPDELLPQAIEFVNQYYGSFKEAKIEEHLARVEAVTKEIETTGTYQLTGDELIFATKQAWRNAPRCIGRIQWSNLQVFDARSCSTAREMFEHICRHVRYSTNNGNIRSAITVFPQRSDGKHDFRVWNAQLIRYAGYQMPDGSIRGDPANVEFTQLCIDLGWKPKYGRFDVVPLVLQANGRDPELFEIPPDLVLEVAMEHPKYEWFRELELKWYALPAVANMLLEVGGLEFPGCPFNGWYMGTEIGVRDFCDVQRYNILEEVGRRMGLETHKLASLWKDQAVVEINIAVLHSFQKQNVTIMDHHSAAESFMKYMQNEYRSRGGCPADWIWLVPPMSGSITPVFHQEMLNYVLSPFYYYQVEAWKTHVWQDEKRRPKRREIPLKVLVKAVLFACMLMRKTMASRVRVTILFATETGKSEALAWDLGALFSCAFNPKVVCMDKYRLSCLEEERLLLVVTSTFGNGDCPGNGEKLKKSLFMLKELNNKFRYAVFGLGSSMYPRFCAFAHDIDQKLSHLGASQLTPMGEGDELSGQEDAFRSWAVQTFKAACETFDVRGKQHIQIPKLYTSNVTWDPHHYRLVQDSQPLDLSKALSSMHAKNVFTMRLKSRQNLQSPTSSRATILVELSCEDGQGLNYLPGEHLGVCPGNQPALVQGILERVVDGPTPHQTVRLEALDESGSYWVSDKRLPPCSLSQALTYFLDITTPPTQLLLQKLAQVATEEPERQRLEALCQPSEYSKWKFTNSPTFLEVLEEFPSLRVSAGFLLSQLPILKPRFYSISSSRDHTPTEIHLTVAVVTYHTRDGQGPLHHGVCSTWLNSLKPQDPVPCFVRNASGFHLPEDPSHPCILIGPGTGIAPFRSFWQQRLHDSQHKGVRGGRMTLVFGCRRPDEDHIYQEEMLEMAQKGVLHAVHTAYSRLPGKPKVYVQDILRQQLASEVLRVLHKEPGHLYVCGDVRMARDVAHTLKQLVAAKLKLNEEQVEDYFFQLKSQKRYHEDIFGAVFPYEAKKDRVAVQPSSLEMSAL

With `O=C(/C=C/c1ccc(Cl)cc1)N[C@@H](Cc1ccccn1)C(=O)NCC(=O)N1CCC(Oc2cc(C(F)(F)F)ncn2)CC1` [FK330, N^2-[(2E)-3-(4-chlorophenyl)-2-propenoyl]-N-[2-oxo-2-(4-{[6-(trifluoromethyl)pyrimidin-4-yl]oxy}piperidin-1-yl)ethyl]-3-pyridin-2-yl-L-alaninamide], the “tumor volume reduction ratio compared with docetaxel-only group” value in test [1] (Day 29, FK330 100 mg/kg bid p.o. + docetaxel 10 mg/kg/day i.v. (Day 1, 5 and 9), significant) was 63.5%. Further, the “tumor volume reduction ratio compared with doxorubicin-only group” value in test [1] (Day 29, FK330 100 mg/kg bid p.o. + doxorubicin 10 mg/kg/day i.v. (Day 1 and 8), not significant) was 33.5%. Also, the “tumor volume reduction ratio compared with irinotecan-only group” value in test [1] (Day 29, FK330 100 mg/kg bid p.o. + irinotecan 30 mg/kg/day i.v. (Day 1 through 7), not significant) is 30.8%. Moreover, the “tumor volume reduction ratio compared with paclitaxel-only group” value in test [1] (Day 29, FK330 100 mg/kg bid p.o. + paclitaxel 10 mg/kg/day i.v. (Day 1 through 7), significant) was determined as 57.6%. Further, the “effect of FK330 on the anti-tumor effect of carboplatin” value in test [1] (FK330 100 mg/kg bid p.o. + carboplatin 60 mg/kg/day i.v. (Day 1 and 2)) is on record as “did not affect”. For the same compound, the “effect of FK330 on the anti-tumor effect of gemcitabine” value in test [1] (FK330 100 mg/kg bid p.o. + gemcitabine 160 mg/kg/day i.v. (Day 1, 4 and 7)) is given as “did not affect”. Besides, the “anti-tumor effect when FK330 was used alone” value in test [1] (FK330 100 mg/kg bid p.o. alone, every day, observation until Day 29) is given as “not recognized”. Further, in test [2], the “inducible nitric oxide synthase (iNOS) inhibitory activity” value was “excellent”. In test [3], the “efficacy in chronic rejection model for rat aorta transplantation” value is on record as “effective”.
